Measurements from article PMC9236245, “Glycyrrhiza uralensis promote the metabolism of toxic components of Aconitum carmichaeli by CYP3A and alleviate the development of chronic heart failure” (PLoS ONE, 2022).
“And” between values parts separate entries of the source, which are not always exact repeats. Equal entries are not always repeated.

Key:
Type in all cases: in vivo
CYP3A1 mRNA = CYP3A1 mRNA expression in rat liver after 14 days dosing (RT-PCR); conditions: positive induction 0.08 g/kg/D, single replicates
Description: (§1) All animal procedures, including killing, were approved by the Institutional Animal Care and Use Committee at Medical College of Shanghai University of TCM. 25 SD rats, weighing 180–200 g, were purchased from Shanghai SLAC Laboratory Animal company and fed in SPF environmental condition. The rats were randomly divided into negative control, phenobarbital positive induction (0.08 g / kg / D) and Glycyrrhiza groups with different concentrations (0.33 g / kg / D, 1 g / kg / D and 3 g / kg / D), with 5 rats in each group, intragastric administration for 14 days. The phenobarbital induced group was given intraperitoneal injection three days before treatment. The animals were killed by CO2 asphyxiation, liver microsomes were prepared and were used to detect the expression of CYP3A1 / 2 mRNA in liver tissue.
(§2) Total RNA was extracted using Trizol reagent according to the manufacturer’s instructions. 1μg of total RNA was transcribed to cDNA using the PrimeScriptTM RT Master Mix kit (TaKaRa, China). Quantitative RT-PCR was performed in a reaction volume of 20μL cDNA on ABI system (Applied Biosystems, Life Technologies). The average cycle thresholds (Ct) were employed to quantify fold-change. The 2^-△△CT method was reported to calculate relative gene expression levels.

CYP3A2 mRNA = CYP3A2 mRNA expression in rat liver after 14 days dosing (RT-PCR); conditions: positive induction 0.08 g/kg/D, single replicates
Description: as §1, §2

CHF rat model = test: ATP, ADP and AMP in left ventricular myocardium (HPLC) of ADR-induced CHF rats; conditions: 5 mL/kg/D gavage 4 weeks
Procedure: According to reference, the rat model of CHF was established by intraperitoneal injection of ADR (2.5 mg / kg) once a week for six weeks. 6 weeks later, the rats were randomly divided into model group, Aconitum (0.3 g / mL), Glycyrrhizae combind with Aconitum (0.6 g / mL) and Captopril (1.25 mg / mL) group. Each treatment group was given 5 mL / kg / D by gavage for 4 weeks, the normal and model group were given the same volume of distilled water by gavage. After the last administration, the rats were killed by CO2 asphyxia, and the indexes were determined.
Weighed 100 mg of left ventricular myocardium of rats, cut into pieces, added 500 μL 4.2% perchloric acid, homogenized in ice bath, 3 000 r / min, 4°C for 15 min. Took 200 μL of the supernatant, added 135 μL of 1 mol / L NaOH, adjusted the pH to about 6.0, shaked and mixed, 8 000 r / min, 4°C for 10 min, and took 20 μL of the supernatant for HPLC analysis. There was a good linear relationship between the peak area measured by HPLC and the concentrations of ATP, AMP and ADP, and the content was calculated according to the standard curve.

**Q.** Which results are given for CCC1(c2ccccc2)C(=O)NC(=O)NC1=O [Phenobarbital]?
**A.** CYP3A1 mRNA (CYP3A1 mRNA): 8.832 and 7.88 and 8.097; CYP3A2 mRNA (CYP3A2 mRNA): 3.986 and 3.344 and 3.449

**Q.** How did the “ADP level in left ventricular myocardium, difference vs model group” value (CHF rat model) turn out when C[C@H](CS)C(=O)N1CCC[C@H]1C(=O)O [captopril, Captopril] was run?
**A.** -0.07185 ± 0.02716
